Reference: US20260327191A1, “GSK3a INHIBITORS AND METHODS OF USE THEREOF” (Blueprint Medicines Corporation, priority 2023, published 2026)

Key:
[1] = molecular target: T1, GSK3A (Homo sapiens, UniProt P49840); test: NanoBRET cellular target engagement assay, Nanoluc-GSK3A in HEK293 cells; type: cell-based; conditions: NanoBRET GSK3α IC50, HEK293 cells, tracer K-8, 2 hours, 37° C
T1 construct: expressed in transfected cells

[2] = molecular target: T2, human GSK3α (Homo sapiens, UniProt P49840); test: In vitro enzymatic activity assay, GSK3α; type: biochemical; conditions: 1.0 mM ATP, 1.0 μM peptide substrate, 120 min, 25° C, read-out: Enzyme GSK3α (IC50)
T2 construct: Full length human GSK3α or GSK3B expressed as N-terminal GST fusion proteins; GST (N); purchased Carna Biosciences (Japan); host or cells: baculovirus host
T2 sequence (P49840 whole entry, the tested form may be a part): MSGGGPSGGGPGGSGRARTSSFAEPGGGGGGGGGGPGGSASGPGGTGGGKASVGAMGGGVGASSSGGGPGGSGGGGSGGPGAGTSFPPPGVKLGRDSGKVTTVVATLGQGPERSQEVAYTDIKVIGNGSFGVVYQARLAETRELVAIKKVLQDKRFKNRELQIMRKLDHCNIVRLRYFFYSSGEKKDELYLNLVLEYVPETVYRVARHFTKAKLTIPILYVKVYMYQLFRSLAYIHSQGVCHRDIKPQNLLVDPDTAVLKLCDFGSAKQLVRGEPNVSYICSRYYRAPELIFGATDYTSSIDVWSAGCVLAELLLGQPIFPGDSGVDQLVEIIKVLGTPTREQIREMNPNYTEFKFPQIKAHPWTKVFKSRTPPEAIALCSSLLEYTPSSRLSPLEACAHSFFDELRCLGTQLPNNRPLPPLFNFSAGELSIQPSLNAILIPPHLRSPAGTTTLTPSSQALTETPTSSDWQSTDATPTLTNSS

[3] = molecular target: T3, GSK3B (Homo sapiens, UniProt P49841); test: NanoBRET cellular target engagement assay, Nanoluc-GSK3B in HEK293 cells; type: cell-based; design: expressed in transfected cells; conditions: NanoBRET GSK3β IC50, HEK293 cells, tracer K-8, 2 hours, 37° C
T3 sequence (P49841 whole entry, the tested form may be a part): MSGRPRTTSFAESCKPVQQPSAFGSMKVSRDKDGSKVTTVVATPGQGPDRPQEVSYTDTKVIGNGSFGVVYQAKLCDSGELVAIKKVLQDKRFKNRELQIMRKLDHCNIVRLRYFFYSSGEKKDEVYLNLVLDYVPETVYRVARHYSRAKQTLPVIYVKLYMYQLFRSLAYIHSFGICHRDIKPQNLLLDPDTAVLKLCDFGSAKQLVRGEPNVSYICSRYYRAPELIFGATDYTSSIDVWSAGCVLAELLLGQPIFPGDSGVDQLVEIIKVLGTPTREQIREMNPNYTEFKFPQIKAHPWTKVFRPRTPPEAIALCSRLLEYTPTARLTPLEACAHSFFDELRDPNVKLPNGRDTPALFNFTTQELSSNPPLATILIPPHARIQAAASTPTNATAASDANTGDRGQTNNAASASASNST

[4] = molecular target: T3, GSK3B; test: In vitro enzymatic activity assay, GSK3β; type: biochemical; design: Full length human GSK3α or GSK3B expressed as N-terminal GST fusion proteins; GST (N); purchased Carna Biosciences (Japan); host or cells: baculovirus host; conditions: 1.0 mM ATP, 1.0 μM peptide substrate, 120 min, 25° C, read-out: Enzyme GSK3β (IC50)

T1 sequence (P49840 whole entry): as the sequence (P49840 whole entry, the tested form may be a part) above

Row | SMILES | IC50 [1] | IC50 [2] | IC50 [3] | IC50 [4]
1 | CCOCc1cc(C)c(-n2cnc(N)c(C(=O)Nc3cncc(C4CCCCCN4)c3)c2=O)c(C)c1 (single isomer, unassigned) [Example 132, (R)-4-amino-N-(5-(azepan-2-yl)pyridin-3-yl)-1-(4-(ethoxymethyl)-2,6-dimethylphenyl)-6-oxo-1,6-dihydropyrimidine-5-carboxamide or (S)-4-amino-N-(5-(azepan-2-yl)pyridin-3-yl)-1-(4-(ethoxymethyl)-2,6-dimethylphenyl)-6-oxo-1,6-dihydropyrimidine-5-carboxamide] | 2 nM | 5.5 nM | 181 nM | 228 nM
2 | CCOc1cc(Cl)c(-n2cnc(N)c(C(=O)Nc3cncc(C(N)COC)c3)c2=O)c(Cl)c1 (single isomer, unassigned) [Example 134, (R)-4-amino-N-(5-(1-amino-2-methoxyethyl)pyridin-3-yl)-1-(2,6-dichloro-4-ethoxyphenyl)-6-oxo-1,6-dihydropyrimidine-5-carboxamide or (S)-4-amino-N-(5-(1-amino-2-methoxyethyl)pyridin-3-yl)-1-(2,6-dichloro-4-ethoxyphenyl)-6-oxo-1,6-dihydropyrimidine-5-carboxamide] | 3.2 nM | 3.4 nM | 204 nM | 212 nM
3 | CCOc1cc(Cl)c(-n2cnc(N)c(C(=O)Nc3cncc(C(N)CC)c3)c2=O)c(Cl)c1 (single isomer, unassigned) [Example 136, (R)-4-amino-N-(5-(1-aminopropyl)pyridin-3-yl)-1-(2,6-dichloro-4-ethoxyphenyl)-6-oxo-1,6-dihydropyrimidine-5-carboxamide or (S)-4-amino-N-(5-(1-aminopropyl)pyridin-3-yl)-1-(2,6-dichloro-4-ethoxyphenyl)-6-oxo-1,6-dihydropyrimidine-5-carboxamide] | 1.8 nM | 2.9 nM | 118 nM | 206 nM
4 | CCOc1cc(Cl)c(-n2cnc(N)c(C(=O)Nc3cncc(C(C)N)c3)c2=O)c(Cl)c1 (single isomer, unassigned) [Example 137, (R)-4-amino-N-(5-(1-aminoethyl)pyridin-3-yl)-1-(2,6-dichloro-4-ethoxyphenyl)-6-oxo-1,6-dihydropyrimidine-5-carboxamide or (S)-4-amino-N-(5-(1-aminoethyl)pyridin-3-yl)-1-(2,6-dichloro-4-ethoxyphenyl)-6-oxo-1,6-dihydropyrimidine-5-carboxamide] | 1.7 nM | 1.9 nM | 87.1 nM | 129 nM
5 | CCOCC(N)c1cncc(NC(=O)c2c(N)ncn(-c3c(Cl)cc(OCC)cc3Cl)c2=O)c1 (single isomer, unassigned) [Example 140, (R)-4-amino-N-(5-(1-amino-2-ethoxyethyl)pyridin-3-yl)-1-(2,6-dichloro-4-ethoxyphenyl)-6-oxo-1,6-dihydropyrimidine-5-carboxamide or (S)-4-amino-N-(5-(1-amino-2-ethoxyethyl)pyridin-3-yl)-1-(2,6-dichloro-4-ethoxyphenyl)-6-oxo-1,6-dihydropyrimidine-5-carboxamide] | 9.2 nM | 24.2 nM | 616 nM | 1240 nM
6 | CCOc1cc(Cl)c(-n2cnc(N)c(C(=O)Nc3cncc(C(COC)NC)c3)c2=O)c(Cl)c1 (single isomer, unassigned) [Example 141, (R)-4-amino-1-(2,6-dichloro-4-ethoxyphenyl)-N-(5-(2-methoxy-1-(methylamino)ethyl)pyridin-3-yl)-6-oxo-1,6-dihydropyrimidine-5-carboxamide or (S)-4-amino-1-(2,6-dichloro-4-ethoxyphenyl)-N-(5-(2-methoxy-1-(methylamino)ethyl)pyridin-3-yl)-6-oxo-1,6-dihydropyrimidine-5-carboxamide] | 2.9 nM | 4.1 nM | 318 nM | 232 nM
7 | Cc1cc(C)c(-n2cnc(N)c(C(=O)Nc3cncc(C4CCCCCN4)c3)c2=O)c(C)c1 (single isomer, unassigned) [Example 146, (R)-4-amino-N-(5-(azepan-2-yl)pyridin-3-yl)-1-mesityl-6-oxo-1,6-dihydropyrimidine-5-carboxamide or (S)-4-amino-N-(5-(azepan-2-yl)pyridin-3-yl)-1-mesityl-6-oxo-1,6-dihydropyrimidine-5-carboxamide] | 3.7 nM | 7.7 nM | 340 nM | 355 nM

Next, values leading:

Row | IC50 [1] | IC50 [2] | IC50 [3] | IC50 [4] | SMILES
8 | 5.3 nM | 13.5 nM | 461 nM | 591 nM | CCOCc1cc(C)c(-n2cnc(N)c(C(=O)Nc3cncc(C(C)N)c3)c2=O)c(C)c1 (single isomer, unassigned) [Example 130, (R)-4-amino-N-(5-(1-aminoethyl)pyridin-3-yl)-1-(4-(ethoxymethyl)-2,6-dimethylphenyl)-6-oxo-1,6-dihydropyrimidine-5-carboxamide or (S)-4-amino-N-(5-(1-aminoethyl)pyridin-3-yl)-1-(4-(ethoxymethyl)-2,6-dimethylphenyl)-6-oxo-1,6-dihydropyrimidine-5-carboxamide]
9 | 4.5 nM | 3.2 nM | 264 nM | 184 nM | CCOc1cc(Cl)c(-n2cnc(N)c(C(=O)Nc3cncc(C4COCCCN4)c3)c2=O)c(Cl)c1 (single isomer, unassigned) [Example 135, (R)-N-(5-(1,4-oxazepan-3-yl)pyridin-3-yl)-4-amino-1-(2,6-dichloro-4-ethoxyphenyl)-6-oxo-1,6-dihydropyrimidine-5-carboxamide or (S)-N-(5-(1,4-oxazepan-3-yl)pyridin-3-yl)-4-amino-1-(2,6-dichloro-4-ethoxyphenyl)-6-oxo-1,6-dihydropyrimidine-5-carboxamide]
10 | 5.1 nM | 10.9 nM | 281 nM | 560 nM | CCOc1cc(Cl)c(-n2cnc(N)c(C(=O)Nc3cncc(C(N)C4CC4)c3)c2=O)c(Cl)c1 (single isomer, unassigned) [Example 139, (R)-4-amino-N-(5-(amino(cyclopropyl)methyl)pyridin-3-yl)-1-(2,6-dichloro-4-ethoxyphenyl)-6-oxo-1,6-dihydropyrimidine-5-carboxamide or (S)-4-amino-N-(5-(amino(cyclopropyl)methyl)pyridin-3-yl)-1-(2,6-dichloro-4-ethoxyphenyl)-6-oxo-1,6-dihydropyrimidine-5-carboxamide]
11 | 4.7 nM | 9.8 nM | 350 nM | 421 nM | CCOc1cc(Cl)c(-n2cnc(N)c(C(=O)Nc3cncc(C(C)N)c3)c2=O)c(Cl)c1 (single isomer, unassigned) [Example 142, (R)-4-amino-N-(5-(1-aminoethyl)pyridin-3-yl)-1-(2,6-dichloro-4-ethoxyphenyl)-6-oxo-1,6-dihydropyrimidine-5-carboxamide or (S)-4-amino-N-(5-(1-aminoethyl)pyridin-3-yl)-1-(2,6-dichloro-4-ethoxyphenyl)-6-oxo-1,6-dihydropyrimidine-5-carboxamide]
12 | 4.1 nM | 4.9 nM | 280 nM | 207 nM | CCOc1cc(Cl)c(-n2cnc(N)c(C(=O)Nc3cncc(C(N)CC(F)F)c3)c2=O)c(Cl)c1 (single isomer, unassigned) [Example 143, (R)-4-amino-N-(5-(1-amino-3,3-difluoropropyl)pyridin-3-yl)-1-(2,6-dichloro-4-ethoxyphenyl)-6-oxo-1,6-dihydropyrimidine-5-carboxamide or (S)-4-amino-N-(5-(1-amino-3,3-difluoropropyl)pyridin-3-yl)-1-(2,6-dichloro-4-ethoxyphenyl)-6-oxo-1,6-dihydropyrimidine-5-carboxamide]
13 | 5 nM | 11 nM | 375 nM | 472 nM | Cc1cc(CC(F)F)cc(C)c1-n1cnc(N)c(C(=O)Nc2cncc(C(C)N)c2)c1=O (single isomer, unassigned) [Example 144, (R)-4-amino-N-(5-(1-aminoethyl)pyridin-3-yl)-1-(4-(2,2-difluoroethyl)-2,6-dimethylphenyl)-6-oxo-1,6-dihydropyrimidine-5-carboxamide or (S)-4-amino-N-(5-(1-aminoethyl)pyridin-3-yl)-1-(4-(2,2-difluoroethyl)-2,6-dimethylphenyl)-6-oxo-1,6-dihydropyrimidine-5-carboxamide]
14 | 3.8 nM | 8.8 nM | 354 nM | 392 nM | Cc1cc(C)c(-n2cnc(N)c(C(=O)Nc3cncc(C(C)N)c3)c2=O)c(C)c1 (single isomer, unassigned) [Example 147, (R)-4-amino-N-(5-(1-aminoethyl)pyridin-3-yl)-1-mesityl-6-oxo-1,6-dihydropyrimidine-5-carboxamide or (S)-4-amino-N-(5-(1-aminoethyl)pyridin-3-yl)-1-mesityl-6-oxo-1,6-dihydropyrimidine-5-carboxamide]
